Article PMC6792352, “Limited Chemical Structural Diversity Found to Modulate Thyroid Hormone Receptor in the Tox21 Chemical Library” (Environmental Health Perspectives, 2019)
Structures can show the parent of a compound that is named as a salt.

Assay: in vitro
Details: rat, gh3-tre-luc cells, AC50 (uM) modified / 1000

| SMILES | CC50 at 24 h |
| --- | --- |
| CC(C)(C)C1CCCCC1=O (stereo not drawn) [2-tert-Butylcyclohexanone] | > 90 µM |
| O=Cc1ccccc1S(=O)(=O)O [Sodium 2-formylbenzenesulfonate] | > 90 µM |
| O=C(O)CCSCCC(=O)O [3,3'-Thiodipropionic acid] | > 90 µM |
| Nc1cccc(S(=O)(=O)O)c1 [3-Aminobenzenesulfonic acid] | > 90 µM |
| C=CC[N@@+]12CC[C@@]34c5ccccc5N5/C=C6/[C@H]7C[C@H]8[C@@]9(CC[N@@+]8(CC=C)C/C7=C/CO)c7ccccc7N(/C=C(/[C@@H](C[C@@H]31)/C(=C\CO)C2)[C@H]54)[C@@H]69 [Alcuronium chloride] | > 20 µM |
| CCOc1ccc(/N=N/c2ccc(N)cc2N)cc1 [Ethoxazene] | > 50 µM |
| CCC(C)(C)C(=O)O [2,2-Dimethylbutanoic acid] | > 90 µM |
| CCN(CC)CCNC(=O)c1ccc(NS(C)(=O)=O)cc1 [Sematilide monohydrochloride] | > 50 µM |
| CC1(C)CNC(=NN=C(/C=C/c2ccc(C(F)(F)F)cc2)/C=C/c2ccc(C(F)(F)F)cc2)NC1 [Hydramethylnon] | 11.2 µM |
| COC(=O)c1ccccc1C [Methyl 2-methylbenzoate] | > 90 µM |
| CCC(C)(C)C1CCC(=O)CC1 [4-(tert-Pentyl)-cyclohexanone] | > 90 µM |
| CCCCCCCC/C=C\CCCCCCCC(=O)OC [Methyl (9Z)-octadec-9-enoate] | > 90 µM |
| CCCC(C)CC (stereo not drawn) [3-Methylhexane] | > 90 µM |
| CC12CC1(C)C(=O)N(c1cc(Cl)cc(Cl)c1)C2=O (stereo not drawn) [Procymidone] | > 90 µM |
| OC(CN1CCC(Cc2ccc(F)cc2)CC1)c1ccc(Cl)cc1 (stereo not drawn) [Eliprodil] | > 50 µM |
| COCCOCCOCCOCCO [2,5,8,11-Tetraoxatridecan-13-ol] | > 90 µM |
| COCC(=O)N(c1c(C)cccc1C)C(C)C(=O)OC (stereo not drawn) [Metalaxyl] | > 90 µM |
| Cc1cccc(Br)c1 [3-Bromotoluene] | > 90 µM |
| O=C1c2ccccc2C(=O)C1c1ccc(F)cc1 [Fluindione] | > 50 µM |
| CC1(C)[C@@H]2CC[C@@]1(C)[C@H](OC(=O)CSC#N)C2 [Thanite] | > 50 µM |
| OC(c1ccc(F)cc1)(c1cncnc1)c1ccccc1Cl (stereo not drawn) [Nuarimol] | > 90 µM |
| O=C(C[C@H]1NCCC[C@@H]1O)Cn1cnc2cc(Br)c(Cl)cc2c1=O (racemic) [Halofuginone hydrochloride] | > 50 µM |
| O=C(O)c1ccc(OCCCOc2ccc(C(=O)O)cc2)cc1 [1,3-Bis(4-carboxyphenoxy)propane] | > 50 µM |
| CC(C)=CC(=O)O [3,3-Dimethylacrylic acid] | > 90 µM |
| O=C(N[C@H](c1ccccc1)[C@@H]1CN2CCC1CC2)c1c(Cl)ccc(C(F)(F)F)c1Cl [SSR 103800] | 9.74 µM |

| SMILES | CC50 at 24 h |
| --- | --- |
| CC(=O)OCC(C)C [Isobutyl acetate] | > 90 µM |
| CN(C)C1CCCCC1 [N,N-Dimethylcyclohexylamine] | > 90 µM |
| OCCOCCN1CCN(C2=Nc3ccccc3Sc3ccccc32)CC1 [Quetiapine] | > 50 µM |
| CC(CN(C)C)CN1c2ccccc2CCc2ccccc21 (stereo not drawn) [Trimipramine maleate] | 4.77 µM |
| O=C(O)c1ccccc1-n1cc(C(=O)O)c(=O)c2cc(Nc3c(F)cc(F)cc3Cl)c(Cl)cc21 [AVE9423] | > 90 µM |
| Cc1ccc(S(=O)(=O)O)cc1 [4-Methylbenzenesulfonic acid] | > 90 µM |
| N[C@@H](Cc1ccc(O)c(O)c1)C(=O)O [L-Dopa] | > 50 µM |
| OC(CCN1CCCCC1)(c1ccccc1)c1ccccc1 [Pridinol] | 25.8 µM |
| COC(=O)NN [Methyl carbazate] | > 90 µM |
| C[Si](C)(C)O[Si](O)(O)O [Trimethylsilyl silicate] | > 90 µM |
| C=C1/C(=C\C=C2/CCC[C@]3(C)[C@@H]([C@H](C)CCCC(C)(C)O)CC[C@@H]23)C[C@@H](O)C[C@@H]1O [Calcitriol] | 20.1 µM |
| O=c1c(O)c(-c2ccc(O)cc2O)oc2cc(O)cc(O)c12 [Morin hydrate] | > 90 µM |
| O=C(O)CCCC/C=C(\c1ccccc1)c1cccnc1 [Isbogrel] | > 50 µM |
| CCCCCCCC/C=C/CCCOC(C)=O [(E)-4-Tridecen-l-yl acetate] | > 90 µM |
| C=CC(=O)Nc1cc2c(Nc3ccc(F)c(Cl)c3)ncnc2cc1OCCCN1CCOCC1 [Canertinib] | 4.7 µM |
| CCOC(=O)CC(C(C)=O)C(C)=O [Ethyl 3-acetyl-4-oxopentanoate] | > 90 µM |
| CCO[Si](CCCN)(OCC)OCC [3-Aminopropyltriethoxysilane] | > 90 µM |
| COC(C)(C)CCCC(C)C/C=C/C(C)=C/C(=O)OC(C)C (stereo not drawn) [Methoprene] | > 90 µM |
| C=C(C)C(=O)OCCOP(=O)(O)OCCOC(=O)C(=C)C [Bis(methacryloyloxyethyl) hydrogen phosphate] | > 90 µM |
| O=C1C(CC[S+]([O-])c2ccccc2)C(=O)N(c2ccccc2)N1c1ccccc1 (stereo not drawn) [Sulfinpyrazone] | > 20 µM |
| CCC(=O)NS(=O)(=O)c1ccc(-c2c(-c3ccccc3)noc2C)cc1 [Parecoxib sodium] | > 50 µM |
| CCOC(=O)C1=NOC(c2ccccc2)(c2ccccc2)C1 [Isoxadifen-ethyl] | > 90 µM |
| CCCCC(CC)CNC(=N)NC(=N)NCCCCCCNC(=N)NC(=N)NCC(CC)CCCC (stereo not drawn) [Alexidine dihydrochloride] | 7.36 µM |
| OCc1ccccc1 [Benzyl alcohol] | > 90 µM |
| CCCCc1ccc2[nH]c(NC(=O)OC)nc2c1 [Parbendazole] | 0.0667 µM |

| SMILES | CC50 at 24 h |
| --- | --- |
| CCCCCSCCCCC [Pentyl sulfide] | > 90 µM |
| Cc1cc(C)c(C(=O)O)c(C)c1 [2,4,6-Trimethylbenzoic acid] | > 90 µM |
| Cc1cc(C(=O)O)ccc1[N+](=O)[O-] [3-Methyl-4-nitrobenzoic acid] | > 90 µM |
| CCNc1nc(NC(C)CC)nc(OC)n1 (stereo not drawn) [Secbumeton] | > 90 µM |
| C[Si]1(C)O[Si](C)(C)O[Si](C)(C)O[Si](C)(C)O1 [Octamethylcyclotetrasiloxane] | > 90 µM |
| c1ccc2cnccc2c1 [Isoquinoline] | > 90 µM |
| CC(C)NCC(O)COc1cccc2[nH]ccc12 (stereo not drawn) [Pindolol] | > 50 µM |
| c1cc2c(c(NC3=NCCN3)c1)CCCC2 [Tramazoline tosylate] | > 50 µM |
| CCc1cccc(C)c1 [3-Ethyltoluene] | > 90 µM |
| C=CCOC(=O)CCC1CCCCC1 [Prop-2-en-1-yl 3-cyclohexylpropanoate] | > 90 µM |
| C[C@@]12C(=O)OC(=O)[C@]1(C)[C@H]1CC[C@@H]2O1 [Cantharidin] | 2.01 µM |
| O=C(c1ccccc1)C1CCCCC1 [Cyclohexylphenylketone] | > 90 µM |
| C=C1CC[C@@]2(O)[C@H]3Cc4ccc(O)c5c4[C@@]2(CCN3CC2CC2)[C@H]1O5 [Nalmefene] | > 50 µM |
| CC(C)(O)C(=O)c1ccccc1 [2-Hydroxy-2-methylpropiophenone] | > 90 µM |
| BrCc1cccc(Oc2ccccc2)c1 [1-(Bromomethyl)-3-phenoxybenzene] | > 90 µM |
| COc1ccc2sc(C(=O)Nc3nnn[nH]3)c(OC(C)C)c2c1 [CI-959] | 6.07 µM |
| NC1(c2ccc(-c3nc4ccn5c(=O)[nH]nc5c4cc3-c3ccccc3)cc2)CCC1 [MK-2206] | 16.8 µM |
| O=C(O)/C=C/c1ccc(O)c(O)c1 [Caffeic acid] | > 90 µM |
| Cc1ccccc1OCC(O)CNCCOc1ccc(C(N)=O)cc1 (stereo not drawn) [Tolamolol] | 13.4 µM |
| CCOc1cc(-c2nccc3cc(OC)c(OC)cc23)cc(OCC)c1OCC [Octaverine] | 28.2 µM |
| CCCCCCCC/C=C\CCCCCCCCO [(9Z)-Octadec-9-en-1-ol] | > 90 µM |
| [N-]=[N+]=CC(=O)OC[C@H](N)C(=O)O [Azaserine] | > 50 µM |
| CC(O)c1ccccc1 (stereo not drawn) [alpha-Methylbenzyl alcohol] | > 90 µM |

Same assay, conditions: rat, gh3-tre-luc cells, AC50 (uM) modified / 1000, Tox21_110001=Tox21_110399; viability, 1 nM T3 present, 24 h

| SMILES | CC50 at 24 h |
| --- | --- |
| OC(c1ccccc1)(c1ccccc1)C1CCNCC1 [Azacyclonol] | > 20 µM |

Same assay, conditions: rat, gh3-tre-luc cells, AC50 (uM) modified / 1000, Tox21_110001=Tox21_111251; viability, 1 nM T3 present, 24 h

| SMILES | CC50 at 24 h |
| --- | --- |
| C[C@]12N[C@H](Cc3ccccc31)c1ccccc12 [Dizocilpine maleate] | > 50 µM |

Same assay, conditions: rat, gh3-tre-luc cells, AC50 (uM) modified / 1000, Tox21_110001=Tox21_200642; viability, 1 nM T3 present, 24 h

| SMILES | CC50 at 24 h |
| --- | --- |
| CC(C)N(C(=O)SC/C(Cl)=C/Cl)C(C)C [Diallate] | 92.9 µM |

Same assay, conditions: rat, gh3-tre-luc cells, AC50 (uM) modified / 1000, Tox21_110001=Tox21_200724; viability, 1 nM T3 present, 24 h

| SMILES | CC50 at 24 h |
| --- | --- |
| ClC(Cl)(Cl)C(Cl)(Cl)Cl [Hexachloroethane] | > 90 µM |

Same assay, conditions: rat, gh3-tre-luc cells, AC50 (uM) modified / 1000, Tox21_110001=Tox21_201860; viability, 1 nM T3 present, 24 h

| SMILES | CC50 at 24 h |
| --- | --- |
| CCCN(CCC)N=O [N-Nitrosodipropylamine] | > 90 µM |

Same assay, conditions: rat, gh3-tre-luc cells, AC50 (uM) modified / 1000, Tox21_110001=Tox21_202294; viability, 1 nM T3 present, 24 h

| SMILES | CC50 at 24 h |
| --- | --- |
| CCOP(=S)(OCC)SCn1c(=O)oc2cc(Cl)ccc21 [Phosalone] | > 100 µM |

Same assay, conditions: rat, gh3-tre-luc cells, AC50 (uM) modified / 1000, Tox21_110001=Tox21_300811; viability, 1 nM T3 present, 24 h

| SMILES | CC50 at 24 h |
| --- | --- |
| CCOP(=S)(OCC)SCn1c(=O)oc2cc(Cl)ccc21 [Phosalone] | 80.4 µM |

Same assay, conditions: rat, gh3-tre-luc cells, AC50 (uM) modified / 1000, Tox21_110001=Tox21_301190; viability, 1 nM T3 present, 24 h

| SMILES | CC50 at 24 h |
| --- | --- |
| O=S(=O)(c1ccccc1)c1ccccc1 [Diphenylsulfone] | > 90 µM |

Same assay, conditions: rat, gh3-tre-luc cells, AC50 (uM) modified / 1000, Tox21_110001=Tox21_301196; viability, 1 nM T3 present, 24 h

| SMILES | CC50 at 24 h |
| --- | --- |
| N#CCC#N [Propanedinitrile] | 40.5 µM |

Same assay, conditions: rat, gh3-tre-luc cells, AC50 (uM) modified / 1000, Tox21_110001=Tox21_301854; viability, 1 nM T3 present, 24 h

| SMILES | CC50 at 24 h |
| --- | --- |
| CCOC(=O)Nc1cccc(OC(=O)Nc2ccccc2)c1 [Desmedipham] | > 90 µM |

Same assay, conditions: rat, gh3-tre-luc cells, AC50 (uM) modified / 1000, Tox21_110001=Tox21_301901; viability, 1 nM T3 present, 24 h

| SMILES | CC50 at 24 h |
| --- | --- |
| CCCN(CCC)c1c([N+](=O)[O-])cc(S(C)(=O)=O)cc1[N+](=O)[O-] [Nitralin] | > 90 µM |
